Measured values as given in patent US20090291877A1, “TREATMENTS USING CITRULLINE” (priority 2006, published 2009).

Experiments:
[1] = hemodialysis patients, pre versus post dialysis run; cited from earlier work
[2] = Plasma nitrotyrosine during 72-h intravenous infusion in ICU patients with severe sepsis/septic shock; format: in vivo, human; details: 72-h i.v. infusion, compared with placebo
Procedure: (§1) Methods: According to a placebo-controlled double-blind study design, ICU patients with severe sepsis/septic shock (<48 h; APACHE II scores between 18-41) were randomized in a group treated with intravenous 72-h L-arginine-HCl (1.2 μmol/kg·min, n=9) or isocaloric L-alanine (placebo; n=9). All patients were treated with norepinephrine in a range between […] at the start of study. Haemodynamics were recorded at 2-h intervals throughout the protocol. Blood was sampled at baseline and at 24-h intervals and analysed for plasma nitrotyrosine levels. Repeated measurements ANOVA was used; data are means±SEM.

[3] = Haemodynamics (MAP, systemic blood pressure, norepinephrine dose) during 72-h intravenous infusion in ICU patients with severe sepsis/septic shock; format: in vivo, human; details: for MAP: i.v. L-arginine-HCl 1.2 μmol/kg·min, mean ± SEM
Procedure: as §1

Question: Which “Decrease of level during dialysis treatment” value [1] does the source give for `Cl.N=C(N)NCCC[C@H](N)C(=O)O` [ARG, L-arginine-HCl] here?
Answer: Its value is 36%.

Question: And the “Plasma nitrotyrosine (oxidative effect on plasma proteins), arginine versus placebo” value ([2]; listed as Arginine)?
Answer: The value was “does not enhance”.

Question: And the “Plasma nitrotyrosine (oxidative effect on plasma proteins), arginine versus placebo” value ([2]; listed as arginine)?
Answer: The value was “did not differ”.

Question: And the “Norepinephrine dose, arginine versus placebo” value ([3]; 72-h i.v. infusion, compared with placebo)?
Answer: Its value is “No significant differences”.

Question: And the “Systemic blood pressure, arginine versus placebo” value ([3]; 72-h i.v. infusion, compared with placebo, listed as Arginine)?
Answer: Its value is “does not affect”.

Question: And the “Systemic blood pressure, arginine versus placebo” value ([3]; 72-h i.v. infusion, compared with placebo, listed as arginine)?
Answer: The value was “No significant differences”.

Question: And the MAP ([3]; 24 h)?
Answer: The MAP was 81 ± 3 mmHg.

Question: And the MAP ([3]; 48 h)?
Answer: The MAP was 85 ± 4 mmHg.

Question: What about the MAP ([3]; 72 h) of the same compound?
Answer: The MAP was 84 ± 5 mmHg.

Question: And the MAP ([3]; Baseline)?
Answer: Its MAP is 82 ± 4 mmHg.
